Source: PubChem BioAssay AID1963423 (Molecular Pharmacology Branch, DTP, NCI, 2024)

System: 439559-082-T-J2-PDC complex spheroid growth
Test: Anticancer human tumor 439559-082-T-J2-PDC patient-derived colon adenocarcinoma cell line growth inhibition [Asc]
Details: for IC50: curve of first compound; for viability, T/C: stronger effect = lower value
How it was run: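 Spheroid model: tumor line + HUVEC + hMSC. Single agents and combinations; top conc. at/near clinical Cmax (10 microM if undetermined), half-log dilutions. DMSO stocks at 800-fold test concentration.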
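Note: spheroids exposed to agents for 7 days starting day 3 after seeding.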
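Throughout, for viability, T/C: percent of DMSO vehicle control viability with 100% = vehicle.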

NC(=O)C(=Cn1cnc(-c2cc(C(F)(F)F)cc(C(F)(F)F)c2)n1)c1cncnc1 + Cc1c(S(C)(=O)=O)c(-c2cc(F)cc(N3CCN(c4ccc(NS(=O)(=O)c5ccc(NC(CCN6CCC(C(=O)OCCCP(=O)(O)O)CC6)CSc6ccccc6)c(S(=O)(=O)C(F)(F)F)c5)cc4)CC3)c2)c(-c2ccc(Cl)cc2)n1C(C)C
IC50 (second compound 0.1 µM): > 0.3 µM | IC50 (second compound 0.316 µM): > 0.3 µM | IC50 (second compound 1 µM): > 0.3 µM | IC50 (second compound 3.16 µM): > 0.3 µM | IC50 (second compound 10 µM): > 0.3 µM | viability, T/C (second compound 0.1 µM, first compound 0.000949 µM): 92% | viability, T/C (second compound 0.1 µM, first compound 0.003 µM): 115% | viability, T/C (second compound 0.1 µM, first compound 0.00949 µM): 92.9% | viability, T/C (second compound 0.1 µM, first compound 0.03 µM): 87% | viability, T/C (second compound 0.1 µM, first compound 0.0949 µM): 82.7% | viability, T/C (second compound 0.1 µM, first compound 0.3 µM): 82.5% | viability, T/C (second compound 0.316 µM, first compound 0.000949 µM): 100% | viability, T/C (second compound 0.316 µM, first compound 0.003 µM): 101% | viability, T/C (second compound 0.316 µM, first compound 0.00949 µM): 94.9% | viability, T/C (second compound 0.316 µM, first compound 0.03 µM): 82.8% | viability, T/C (second compound 0.316 µM, first compound 0.0949 µM): 84.2% | viability, T/C (second compound 0.316 µM, first compound 0.3 µM): 75.5% | viability, T/C (second compound 1 µM, first compound 0.000949 µM): 92.8% | viability, T/C (second compound 1 µM, first compound 0.003 µM): 98.2% | viability, T/C (second compound 1 µM, first compound 0.00949 µM): 91.1% | viability, T/C (second compound 1 µM, first compound 0.03 µM): 78% | viability, T/C (second compound 1 µM, first compound 0.0949 µM): 75.7% | viability, T/C (second compound 1 µM, first compound 0.3 µM): 67.4% | viability, T/C (second compound 3.16 µM, first compound 0.000949 µM): 87% | viability, T/C (second compound 3.16 µM, first compound 0.003 µM): 93.8% | viability, T/C (second compound 3.16 µM, first compound 0.00949 µM): 94.7% | viability, T/C (second compound 3.16 µM, first compound 0.03 µM): 75.3% | viability, T/C (second compound 3.16 µM, first compound 0.0949 µM): 69.4% | viability, T/C (second compound 3.16 µM, first compound 0.3 µM): 64.5% | viability, T/C (second compound 10 µM, first compound 0.000949 µM): 76.3% | viability, T/C (second compound 10 µM, first compound 0.003 µM): 73.6% | viability, T/C (second compound 10 µM, first compound 0.00949 µM): 75% | viability, T/C (second compound 10 µM, first compound 0.03 µM): 63.8% | viability, T/C (second compound 10 µM, first compound 0.0949 µM): 54.8% | viability, T/C (second compound 10 µM, first compound 0.3 µM): 56.6%

NC1CCC(NC2CC2c2ccccc2)CC1 (stereo not given) + Cc1c(S(C)(=O)=O)c(-c2cc(F)cc(N3CCN(c4ccc(NS(=O)(=O)c5ccc(NC(CCN6CCC(C(=O)OCCCP(=O)(O)O)CC6)CSc6ccccc6)c(S(=O)(=O)C(F)(F)F)c5)cc4)CC3)c2)c(-c2ccc(Cl)cc2)n1C(C)C
IC50 (second compound 0.1 µM): > 0.1 µM | IC50 (second compound 0.316 µM): > 0.1 µM | IC50 (second compound 1 µM): > 0.1 µM | IC50 (second compound 3.16 µM): > 0.1 µM | IC50 (second compound 10 µM): > 0.1 µM | viability, T/C (second compound 0.1 µM, first compound 0.000316 µM): 101% | viability, T/C (second compound 0.1 µM, first compound 0.001 µM): 115% | viability, T/C (second compound 0.1 µM, first compound 0.00316 µM): 100% | viability, T/C (second compound 0.1 µM, first compound 0.01 µM): 93.1% | viability, T/C (second compound 0.1 µM, first compound 0.0316 µM): 113% | viability, T/C (second compound 0.1 µM, first compound 0.1 µM): 102% | viability, T/C (second compound 0.316 µM, first compound 0.000316 µM): 99.4% | viability, T/C (second compound 0.316 µM, first compound 0.001 µM): 114% | viability, T/C (second compound 0.316 µM, first compound 0.00316 µM): 104% | viability, T/C (second compound 0.316 µM, first compound 0.01 µM): 103% | viability, T/C (second compound 0.316 µM, first compound 0.0316 µM): 105% | viability, T/C (second compound 0.316 µM, first compound 0.1 µM): 113% | viability, T/C (second compound 1 µM, first compound 0.000316 µM): 96.6% | viability, T/C (second compound 1 µM, first compound 0.001 µM): 107% | viability, T/C (second compound 1 µM, first compound 0.00316 µM): 117% | viability, T/C (second compound 1 µM, first compound 0.01 µM): 89.7% | viability, T/C (second compound 1 µM, first compound 0.0316 µM): 97.8% | viability, T/C (second compound 1 µM, first compound 0.1 µM): 104% | viability, T/C (second compound 3.16 µM, first compound 0.000316 µM): 95.2% | viability, T/C (second compound 3.16 µM, first compound 0.001 µM): 108% | viability, T/C (second compound 3.16 µM, first compound 0.00316 µM): 109% | viability, T/C (second compound 3.16 µM, first compound 0.01 µM): 90.8% | viability, T/C (second compound 3.16 µM, first compound 0.0316 µM): 89.9% | viability, T/C (second compound 3.16 µM, first compound 0.1 µM): 104% | viability, T/C (second compound 10 µM, first compound 0.000316 µM): 88.3% | viability, T/C (second compound 10 µM, first compound 0.001 µM): 96.4% | viability, T/C (second compound 10 µM, first compound 0.00316 µM): 87.1% | viability, T/C (second compound 10 µM, first compound 0.01 µM): 88.2% | viability, T/C (second compound 10 µM, first compound 0.0316 µM): 85.1% | viability, T/C (second compound 10 µM, first compound 0.1 µM): 86%
